{
  "source": "patent US10584134B2",
  "about": "“Use of physiological cooling active ingredients, and agents containing such active ingredients” (SYMRISE AG, priority 2009, dated 2020)",
  "data": [
    {"system": "panel of sensorially trained experts", "test": "Sensorial assessment of toothpastes containing the flavourings (Examples S-1 to S-4)", "assay_type": "in vivo, human", "details": "flavouring 1.2 wt. % in toothpaste base, usage conditions", "method": "The flavourings obtained in this way were worked into a standard silica toothpaste base in a concentration of 1.2 wt. %. The toothpastes were tested by a panel of sensorially trained experts under usage conditions. The sensorial assessments were as follows: very pleasant, rich and voluminous minty freshness with a comparatively fast onset, strong and marked and comparatively very long-lasting cooling fresh impression, wherein it was noticeable that the sensation of coldness was rapidly perceptible in the whole of the oral cavity. Additionally the flavour was assessed as being softer and more neutral and less sharp than without the compounds according to the invention.\nThe flavourings in a concentration of 1.2% were worked into a toothpaste base comprising an amount of 65% of sodium bicarbonate. The toothpastes were tested under usage conditions and assessed by a panel of sensorially trained experts. In each case a pleasant, powerful spearmint flavour in combination with a voluminous and long-lasting fresh taste was noted.\nThe flavourings obtained in this way were in each case worked into a standard silica toothpaste base in a concentration of 1.2 wt. %. The toothpastes were tested by a panel of sensorially trained experts under usage conditions. […]", "values": [
      {"smiles": "CCNC(=O)C1CC(C)CCC1C(C)C", "note": "(stereo not shown) [WS-3, menthane-3-carboxylic acid-N-ethylamide]", "sensorial assessment of cooling fresh impression": "less powerful, less voluminous and less long-lasting"}
    ]},
    {"system": "not given", "test": "not given", "details": "J. Soc. Cosmet. Chem. 1978, 29, 185-200, study of approximately 1200 compounds; cited from earlier work", "values": [
      {"smiles": "CC1CCC(C(C)C)C(C(=O)NCC(=O)O)C1", "note": "[N^α-(L-menthanecarbonyl)glycine]", "cooling action": "very weak cooling action"},
      {"smiles": "CCOC(=O)CNC(=O)C1CC(C)CCC1C(C)C", "note": "(stereo not shown) [WS5, N-[[5-methyl-2-(1-methylethyl)cyclohexyl]carbonyl]glycine ethyl ester]", "cooling action": "most strongly cooling active ingredients"},
      {"smiles": "CCNC(=O)C1CC(C)CCC1C(C)C", "note": "(stereo not shown) [WS-3, menthane-3-carboxylic acid-N-ethylamide]", "cooling action": "most strongly cooling active ingredients"}
    ]},
    {"system": "not given", "test": "not given", "details": "US 2005/0222256; cited from earlier work", "values": [
      {"smiles": "CCOC(=O)CNC(=O)C1CC(C)CCC1C(C)C", "note": "(stereo not shown) [WS5, N-[[5-methyl-2-(1-methylethyl)cyclohexyl]carbonyl]glycine ethyl ester]", "irritancy": "strongly irritant"}
    ]},
    {"target": "human TRPM8 receptor (Homo sapiens (Human), UniProt Q7Z2W7)", "sequence (Q7Z2W7 whole entry)": "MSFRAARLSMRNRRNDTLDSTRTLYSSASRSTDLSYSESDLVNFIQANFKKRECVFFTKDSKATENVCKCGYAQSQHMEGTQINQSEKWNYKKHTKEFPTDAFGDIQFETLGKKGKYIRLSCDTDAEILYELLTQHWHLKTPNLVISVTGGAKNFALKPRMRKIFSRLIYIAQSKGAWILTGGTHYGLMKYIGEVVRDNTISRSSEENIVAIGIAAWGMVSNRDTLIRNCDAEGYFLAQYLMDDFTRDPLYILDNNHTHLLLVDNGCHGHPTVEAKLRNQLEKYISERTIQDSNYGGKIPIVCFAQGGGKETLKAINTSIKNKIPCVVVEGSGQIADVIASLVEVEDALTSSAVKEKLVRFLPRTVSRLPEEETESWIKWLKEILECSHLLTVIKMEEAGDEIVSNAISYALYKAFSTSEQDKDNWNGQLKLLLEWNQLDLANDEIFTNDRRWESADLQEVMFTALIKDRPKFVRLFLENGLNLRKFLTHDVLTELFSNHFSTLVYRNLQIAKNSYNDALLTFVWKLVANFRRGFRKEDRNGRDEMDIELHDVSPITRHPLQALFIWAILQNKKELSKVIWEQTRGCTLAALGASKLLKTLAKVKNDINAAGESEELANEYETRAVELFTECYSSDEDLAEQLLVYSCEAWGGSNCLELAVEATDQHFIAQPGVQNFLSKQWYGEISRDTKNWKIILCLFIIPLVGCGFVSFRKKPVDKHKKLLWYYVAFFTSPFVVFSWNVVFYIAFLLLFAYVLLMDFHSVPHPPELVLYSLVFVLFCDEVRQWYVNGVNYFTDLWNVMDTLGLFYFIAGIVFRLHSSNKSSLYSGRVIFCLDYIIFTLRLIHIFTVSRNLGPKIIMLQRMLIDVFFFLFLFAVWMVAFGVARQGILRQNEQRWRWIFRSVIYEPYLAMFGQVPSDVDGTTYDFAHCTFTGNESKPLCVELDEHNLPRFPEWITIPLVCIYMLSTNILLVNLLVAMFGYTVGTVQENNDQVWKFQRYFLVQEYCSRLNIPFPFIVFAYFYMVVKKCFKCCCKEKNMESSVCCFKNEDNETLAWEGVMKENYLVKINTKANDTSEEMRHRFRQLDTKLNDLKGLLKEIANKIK", "test": "Assay on TRPM8 modulators (Ca2+-sensitive dye, HEK293-TRPM8 test cells, EC50 determination)", "assay_type": "cell-based", "details": "Table C, structure type 3; assay according to reference example 3", "description": "As a test cell system the human TRPM8 DNA (see plasmid pInd-M8 above) was used to prepare a stable transfixed HEK293 cell line. Here preference is for HEK293 which via the plasmid introduced offers the possibility of induction of the TRPM8 expression by means of tetracycline.\nThe agonisation or antagonisation of the receptor can be quantified by means of a Ca^2+-sensitive dye (e.g. FURA, Fluo-4, etc.).\nTo begin with, in a manner known per se, in cell culture flasks a fresh culture of transformed HEK cells is prepared. The HEK293-TRPM8 test cells are removed using trypsin from the cell culture flasks and 40 000 cells/well are sown with 100 μl medium in 96-well plates (Greiner #655948 Poly-D-lysine coated). In order to induce the TRPM8 receptor the growth medium tetracycline is mixed in (DMEM/HG, 10% FCS tetracycline-free, 4 mM L-glutamine, 15 μg/ml blasticidin, 100 μg/ml hygromycin B, 1 μg/ml tetracycline). The next day the cells are charged with Fluo-4Am dye and the test is performed.\nThe test substances are used in triplicate in concentrations of between 0.1 and 200 μm in the assay. Normally the compounds are kept ready in DMSO solutions and diluted for the assay to a maximum DMSO concentration of 2%.", "units": {"EC50": "µM"}, "values": [
      {"smiles": "COc1ccc(CCC(=O)N(c2ccccn2)C2CCCCC2)cc1", "note": "[Compound 3-42]", "EC50": 3.3},
      {"smiles": "O=C(CCc1ccc2c(c1)OCO2)N(c1ccccc1)c1ccccc1", "note": "[Compound 3-43]", "EC50": 6.8},
      {"smiles": "O=C(COc1ccc2c(c1)OCO2)N(c1ccccc1)C1CCCCC1", "note": "[Compound 3-44]", "EC50": 1},
      {"smiles": "COc1ccc(OCC(=O)N(c2ccccn2)C2CCCCC2)cc1", "note": "[Compound 3-45]", "EC50": 4},
      {"smiles": "O=C(COc1ccccc1)N(c1nccs1)C1CCCCC1", "note": "[Compound 3-46]", "EC50": 3},
      {"smiles": "Cc1ccccc1N(Cc1ccccc1)C(=O)Cc1ccccc1", "note": "[Compound 3-47]", "EC50": 1.7},
      {"smiles": "COc1ccc(C(=O)N(c2ccccn2)C2CCCCC2)cc1", "note": "[Compound 3-48]", "EC50": 10.9},
      {"smiles": "O=C(c1c(Cl)cccc1Cl)N(Cc1ccccc1)c1ccccn1", "note": "[Compound 3-49]", "EC50": 5.5}
    ]}
  ]
}
